The source of these data is patent EP4559922A1, “ANTIHISTAMINE COMPOUND, PREPARATION METHOD THEREFOR AND USE THEREOF” (HC Synthetic Pharmaceutical Co., Ltd., priority 2022, dated 2024).

The nature of data set [1]: Solubility of the compounds in water, methanol and isopropanol. It is filed as physicochemical. The note with it: solvent water.
Experimental: The solubility in water, methanol, and isopropanol of the compounds of the present disclosure and the comparative compounds were measured separately.
Data set [2] relates to histamine-induced asthma in guinea pigs. In words: Antiasthmatic effect on histamine-induced asthma in guinea pigs (latency period). The data set is classed as in vivo. Conditions: X±s, n = 5; for Post-administration latency period: 1 mg/kg oral gavage, sixty minutes after administration, histamine hydrochloride spray, capped at 8 minutes. The method, then:
The guinea pigs were placed in a polymethyl methacrylate bell jar and a histamine hydrochloride solution was sprayed ultrasonically (0.8 mg/mL) for 40 seconds. The time point at which the guinea pigs developed asthma was recorded. The time of convulsion and fall was taken as the latency period. Guinea pigs with a latency period exceeding 180 seconds were not selected. […] The guinea pigs were administered by oral gavage at a dose of 2 mL/kg·bw. Sixty minutes after the administration, the guinea pigs were placed in bell jars, and histamine hydrochloride solution was sprayed under the same conditions as in the previous selection. The latency period for the onset of asthma was recorded. […] The results were processed statistically.

Data set [3] deals with isolated ileal smooth muscle of guinea pigs. In words: Effect on muscle tone of isolated ileal smooth muscle of guinea pigs (no histamine added). The note with it: X±s; for Smooth muscle tone After administration: 5 minutes after adding drug; for Antispasmodic percentage: relative to tone before adding compound, n = 8, 5 min. The protocol:
(§1) The guinea pig was knocked unconscious with a wooden stick, and the abdomen was immediately dissected to separate the ileum about 15 cm in length. The contents of the intestinal segment were flushed with Tyrode's solution and placed in Tyrode's solution at a constant temperature of 37°C for later use, and oxygen was supplied simultaneously. The experimental intestinal tract (1 cm in length) was cut and placed into 20 ml of Tyrode's solution at a constant temperature of 37°C with a continuous oxygen supply. One end of the intestine was fixed on the ventilation hook and the other end was connected to the muscle tone transducer and led to the computer interface. The muscle tone value of the ileal smooth muscle was recorded with a BL system. The experiment was carried out after the intestinal segment contraction became stable.
After the ileum contraction curve stabilized, the tone values before adding the drug were recorded, then the drug or DMSO was added, and the average tone value of the ileum contraction curve at that point was recorded 5 minutes later. The operation was repeated 8 times. The antispasmodic percentage was calculated according to the following formula. Antispasmodic percentage =; (Tone value before adding subject compound−Tone value after adding subject compound)/(Tone value before adding subject compound); × 100% [formula]

The nature of data set [4]: Antagonism of histamine-induced contraction of isolated ileal smooth muscle of guinea pigs. Conditions: relative to tone after adding histamine; x±s, n = 8; 3 min. The protocol:
as §1
(§2) After the ileal peristalsis curve stabilized, the tone values before adding the compound were recorded, and then 0.05 mL of histamine was added. […] The operation was repeated 8 times. The antispasmodic percentage was calculated using the following equation. Antispasmodic percentage =; (Tone value after adding histamine−Tone value after adding subject compound)/(Tone value after adding histamine) × 100% [formula]

The next data set concerns histamine. The description is as above. Conditions: x±s, n = 8; for Smooth muscle tone After administration: 3 minutes after adding 0.05 mL compound following histamine. The method, then: as §1, §2
A short description of data set [5]: Accelerated stability test. The data set is classed as physicochemical. The note with it: 40°C ± 2°C, relative humidity 75% ± 5%; for remaining at 730 h / remaining at 1460 h / remaining at 2190 h / remaining at 4380 h: storage 75% relative humidity, read-out: Content.

For `CN1CCC(=C2c3ccccc3CC(=O)c3sccc32)CC1` [Ketotifen], in data set [1], the “Solubility in Water” value is listed as “Practically insoluble”.

`O=C1Cc2ccccc2C(=C2CCN(CCOP(=O)(O)O)CC2)c2ccsc21` [Compound IV-2]: the Post-administration latency period in data set [2] was found to be 380.27 ± 50.25 s. Further, in data set [3] (n = 8), the “Smooth muscle tone After administration” value worked out at 1.19 ± 0.31 g. For the same compound, the Antispasmodic percentage in data set [3] was determined as 30.40±18.50%. Also, the Antispasmodic percentage in data set [4] is given as 66.95±17.07%. The “Smooth muscle tone After administration” value in the data set with histamine was determined as 1.14 ± 0.23 g. For the same compound, in data set [5] (Month 0), the Content is reported as 99.7%, the Description result was “White powder” and the Related substances came out at 0.03%. In data set [5] (Month 1), the Description entry is “White powder”, the Related substances was found to be 0.04% and the remaining at 730 h turned out to be 99.7%. Further, in data set [5] (Month 2), the Description entry is “White powder”, the Related substances was 0.04% and the remaining at 1460 h was determined as 99.7%. In addition, in data set [5] (Month 3), the Description result is listed as “White powder”, the Related substances worked out at 0.06% and the remaining at 2190 h amounted to 99.6%. Also, in data set [5] (Month 6), the Description result is listed as “White powder”, the Related substances is listed as 0.09% and the remaining at 4380 h was 99.6%.

With `O=C1Cc2ccccc2C(=C2CCN(COP(=O)(O)O)CC2)c2ccsc21` [Compound IV-1], in data set [2], the Post-administration latency period stood at 368.83 ± 49.03 s. Further, in data set [3] (n = 8), the “Smooth muscle tone After administration” value was found to be 1.14 ± 0.31 g. In data set [3] (5 min), this compound yielded an Antispasmodic percentage of 33.72±18.32%. In addition, in data set [4], the Antispasmodic percentage came to 66.28±18.26%. Also, in the data set on histamine, the “Smooth muscle tone After administration” value came out at 1.18 ± 0.24 g. Further, in data set [5] (Month 0), the Content turned out to be 99.7%, the Description entry is on record as “White powder” and the Related substances is listed as 0.03%. In data set [5] (Month 1), the Description entry is “White powder”, the Related substances is reported as 0.05% and the remaining at 730 h stood at 99.7%. In data set [5] (Month 2), the Description entry is “White powder”, the Related substances is given as 0.09% and the remaining at 1460 h is 99.6%. In data set [5] (Month 3), the Description result was “White powder”, the Related substances is recorded as 0.12% and the remaining at 2190 h turned out to be 99.6%. In data set [5] (Month 6), the Description entry is recorded as “White powder”, the Related substances was found to be 0.24% and the remaining at 4380 h was 99.4%.

In data set [2], `O=C1Cc2ccccc2C(=C2CCN(CCCCCOCOP(=O)(O)O)CC2)c2ccsc21` [Compound IV-9] returned a Post-administration latency period of 369.11 ± 49.40 s. The “Smooth muscle tone After administration” value was found to be 1.16 ± 0.28 g in data set [3] (n = 8) and 1.15 ± 0.26 g with histamine. The figures for the Antispasmodic percentage in data set [3] (5 min) and in data set [4] were 32.95±19.04% and 66.57±18.66%, respectively.

`O=C1Cc2ccccc2C(=C2CCN(CCCCCOP(=O)(O)O)CC2)c2ccsc21` [Compound IV-5] came in with a Post-administration latency period in data set [2] of 377.11 ± 50.43 s. Further, the “Smooth muscle tone After administration” value was 1.14 ± 0.30 g in data set [3] (n = 8) and 1.20 ± 0.22 g in the data set with histamine. Moreover, the Antispasmodic percentage was determined as 33.72±19.05% in data set [3] (5 min) and 65.61±19.34% in data set [4].

Regarding `O=C1Cc2ccccc2C(=C2CCN(CCCOCOP(=O)(O)O)CC2)c2ccsc21` [Compound IV-7], the Post-administration latency period in data set [2] is 373.33 ± 52.76 s. Also, the “Smooth muscle tone After administration” value in data set [3] (n = 8) turned out to be 1.15 ± 0.25 g; in the data set on histamine it was 1.17 ± 0.22 g. Besides, the Antispasmodic percentage turned out to be 33.52±19.74% in data set [3] (5 min) and 65.99±19.08% in data set [4].

`O=C1Cc2ccccc2C(=C2CCN(CCCCOCOP(=O)(O)O)CC2)c2ccsc21` [Compound IV-8] showed a Post-administration latency period in data set [2] of 370.23 ± 50.29 s. The “Smooth muscle tone After administration” value in data set [3] (n = 8) stood at 1.14 ± 0.31 g; in the data set with histamine it was 1.20 ± 0.25 g. For the same compound, the Antispasmodic percentage turned out to be 32.94±19.45% in data set [3] (5 min) and 65.01±18.56% in data set [4]. This compound also came in with a Content in data set [5] (Month 0) of 99.7%. The Description entry in data set [5] (Month 0), in data set [5] (Month 1), in data set [5] (Month 2), in data set [5] (Month 3) and in data set [5] (Month 6) was “White powder” throughout. The Related substances in data set [5] (Month 0) is on record as 0.03%; in data set [5] (Month 1), 0.04%; in data set [5] (Month 2) it was 0.05%; in data set [5] (Month 3), 0.06%; in data set [5] (Month 6) it was 0.09%. For the same compound, the remaining at 730 h in data set [5] (Month 1) is 99.7%. In addition, in data set [5] (Month 2), the remaining at 1460 h worked out at 99.7%. The remaining at 2190 h in data set [5] (Month 3) was determined as 99.6%. Further, the remaining at 4380 h in data set [5] (Month 6) was 99.6%.

In data set [2], `O=C1Cc2ccccc2C(=C2CCN(CCOCOP(=O)(O)O)CC2)c2ccsc21` [Compound IV-6] came in with a Post-administration latency period of 370.56 ± 50.81 s. Further, the “Smooth muscle tone After administration” value came out at 1.17 ± 0.28 g in data set [3] (n = 8) and 1.15 ± 0.20 g in the data set with histamine. For the same compound, the Antispasmodic percentage was determined as 31.17±19.54% in data set [3] (5 min) and 66.56±19.45% in data set [4]. In data set [5] (Month 0), this compound gave a Content of 99.7%. For the same compound, the Description entry in data set [5] (Month 0), in data set [5] (Month 1), in data set [5] (Month 2), in data set [5] (Month 3) and in data set [5] (Month 6) was “White powder” throughout. For the same compound, the Related substances was found to be 0.03% in data set [5] (Month 0); 0.05% in data set [5] (Month 1); 0.09% in data set [5] (Month 2); 0.12% in data set [5] (Month 3); 0.25% in data set [5] (Month 6). In addition, the remaining at 730 h in data set [5] (Month 1) is 99.7%. Besides, the remaining at 1460 h in data set [5] (Month 2) worked out at 99.6%. Also, the remaining at 2190 h in data set [5] (Month 3) is 99.6%. In addition, the remaining at 4380 h in data set [5] (Month 6) came out at 99.4%.

In data set [2], `O=C1Cc2ccccc2C(=C2CCN(CCCCOP(=O)(O)O)CC2)c2ccsc21` [Compound IV-4] had a Post-administration latency period of 376.89 ± 51.43 s. The results for the “Smooth muscle tone After administration” value (in data set [3] (n = 8); in the data set with histamine) were 1.18 ± 0.26 g and 1.19 ± 0.21 g, respectively. Also, the values for the Antispasmodic percentage in data set [3] (5 min) and in data set [4] were 30.59±19.00% and 65.40±19.07%, respectively. In data set [5] (Month 0), this compound registered a Content of 99.7%. The Description result in data set [5] (Month 0), in data set [5] (Month 1), in data set [5] (Month 2), in data set [5] (Month 3) and in data set [5] (Month 6) was “White powder” in each case. In addition, the Related substances was 0.03% in data set [5] (Month 0); 0.05% in data set [5] (Month 1); 0.09% in data set [5] (Month 2); 0.12% in data set [5] (Month 3); 0.25% in data set [5] (Month 6). In addition, in data set [5] (Month 1), the remaining at 730 h was 99.7%. Also, the remaining at 1460 h in data set [5] (Month 2) is 99.6%. Besides, the remaining at 2190 h in data set [5] (Month 3) stood at 99.6%. In addition, the remaining at 4380 h in data set [5] (Month 6) worked out at 99.4%.

With `O=C1Cc2ccccc2C(=C2CCN(CCOCOP(=O)(O)O)CC2)c2ccsc21` [Compound III-6], in data set [2], the Post-administration latency period turned out to be 370.03 ± 52.11 s. Further, the Pre-administration latency period in data set [2] (baseline before administration, histamine hydrochloride 0.8 mg/mL sprayed 40 seconds) was 98.68 ± 49.22 s. For the same compound, the “Smooth muscle tone After administration” value in data set [3] (n = 8) worked out at 1.14 ± 0.30 g; in the data set with histamine, 1.22 ± 0.23 g. The “Smooth muscle tone Before administration” value in data set [3] (baseline, n = 8) stood at 1.71 ± 0.24 g; with histamine (baseline before histamine) it was 1.78 ± 0.20 g. The Antispasmodic percentage in data set [3] was 33.33±19.04%; in data set [4], 64.43±17.18%. In addition, the “Smooth muscle tone After addition of histamine” value in the data set on histamine (after 0.05 mL histamine, before compound) was determined as 3.43 ± 0.92 g.
